Measurements published in patent US20140134658A1, “PSA ENZYMATIC ACTIVITY: A NEW BIOMARKER FOR ASSESSING PROSTATE CANCER AGGRESSIVENESS” (NORTHWESTERN UNIVERSITY, AN ILLINOIS NOT FOR PROFIT …, priority 2010, published 2014).

How the values were obtained:
esterases = assay: Sacrificial ester control for esterases in a urine sample with peptide substrate; assay type: biochemical; conditions: urine sample + peptide substrate 0.4 mM, with and without ester 40 mM; single experiment
Protocol: This was tested by running a urine sample (+peptide substrate; 0.4 mM) with and without a “sacrificial ester” (alanine methyl ester; 40 mM). The idea is that if there are esterases in the sample, adding a relatively high concentration of ester will prevent them from cleaving the peptide substrate and we should therefore see a higher turnover of substrate.

PSA = target: T1, PSA (Homo sapiens, UniProt P07288); assay: Optical (fluorogenic) assay of peptide substrate cleavage by PSA; assay type: biochemical; conditions: fluorogenic AMC-labelled substrate, 0.4 mM in buffer A
T1 construct: purchased Scripps Laboratories
T1 sequence (P07288 25-261): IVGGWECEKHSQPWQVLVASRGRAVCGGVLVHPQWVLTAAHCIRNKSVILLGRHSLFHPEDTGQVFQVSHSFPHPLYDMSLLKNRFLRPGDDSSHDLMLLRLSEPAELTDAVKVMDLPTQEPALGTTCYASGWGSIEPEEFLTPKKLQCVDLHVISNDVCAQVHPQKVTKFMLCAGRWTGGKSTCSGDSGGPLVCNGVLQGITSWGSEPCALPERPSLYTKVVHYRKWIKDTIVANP
Protocol: Serial dilution of PSA (reagent #5)+substrate
The desired clinical urine samples were thawed at room temperature, gently vortexed, and briefly centrifuged (<20 seconds) to accumulate sample at the bottom of the tube. Each 50 μL sample was transferred via pipette to the 96-well microplate. The PSA standards (20 μL) were prepared and loaded in the same way. A multichannel pipette was used to transfer the substrate (150 μL) one column at a time and the start time recorded. Once the entire plate was loaded, it was inserted into the microplate reader and analyzed every 10 min. for 2-12 hrs.
Serial dilution of AMC (reagent #6) to determine linear fluorescence range: Reagent #6 (35.9 μL) was diluted to 2.0 mL buffer A to give a concentration of 0.4 mM. A 1:2 dilution was performed to give a final concentration range of 0.4 mM-0.024 uM. This was loaded into a 96-well microplate in duplicate and scanned one time. Serial dilution of PSA (reagent #5)+substrate: 20 μL of each standard PSA standard solution (see general procedure for protein dilution above) was loaded in duplicate into a 96-well microplate followed by 150 μL of peptide substrate in buffer A (see general procedure above) and scanned for at least 3 hrs. Serial dilution of α-Chymotrypsin (reagent #8)+substrate: Same as experiment 2 but with reagent #8. […]

Row | Molecule | effect of sacrificial ester on turnover of peptide substrate (esterases) | cleavage of substrate by PSA (PSA)
1 | COC(=O)[C@H](C)N [alanine methyl ester] | no difference between the sample run with ester and that run without ester | 
2 | Mor-HSSK-Hic-Q-AMC |  | show cleavage by PSA
3 | Mor-HSSK-Hiv-Q-AMC |  | show cleavage by PSA
